Measurements taken from patent US9474790B2, “Stable, protracted GLP-1/glucagon receptor co-agonists for medical use” (Novo Nordisk A/S, priority 2013, dated 2016).
Numbered stars: 1 amine (or outer) side, 2 acyl side, 3 side chain; on linkers, the order of the positions; unused ones are H or OH. Square brackets hold non-standard residues; d marks the D form. Side chains are listed from the residue outwards. Peptide text beside a SMILES is read from it. * marks the point of attachment. C18 diacid = O=C(O)CCCCCCCCCCCCCCCCC(=O)*; γGlu = O=C(O)[C@H](CCC(=O)[*:2])N[*:1]; AEEA = NCCOCCOCC(=O)O; Aib = CC(C)(N)C(=O)O

Legend:
human glucagon receptor = target: T1, human glucagon receptor (Homo sapiens, UniProt P47871); assay: Glucagon receptor potency, CRE luciferase reporter gene assay in BHK cells; format: cell-based; conditions: BHK cells expressing human glucagon receptor, read-out: EC50 GlucR
T1 construct: expressed in transfected cells; host or cells: BHK cells (parent BHK570, CRE luciferase clone BHK/KZ10-20-48), clone pLJ6'-4-25
Method: The purpose of this example was to test the potency, of the glucagon derivatives of the invention, in vitro. The in vitro potency is the measure of human GLP-1 receptor or glucagon receptor activation, respectively, in a whole cell assay.
In vitro potency was determined by measuring the response of human GLP-1 or glucagon receptor, respectively, in a reporter gene assay. The assay was performed in a stably transfected BHK cell line that expresses either the human GLP-1 receptor or the human glucagon receptor and contains the DNA for the cAMP response element (CRE) coupled to a promoter and the gene for firefly luciferase (CRE luciferase). […] When assay incubation was completed, the luciferase substrate (luciferin) was added and the enzyme converted luciferin to oxyluciferin and produces bioluminescence. The luminescence was measured as the readout for the assay.
The cells used in this assay (clone pLJ6′-4-25) were BHK cells with BHK570 as a parent cell line expressing the CRE luciferase gene (clone BHK/KZ10-20-48) and were established by further transfection with the human glucagon receptor (clone pLJ6′ in pHZ-1 vector).
The cells were cultured at 5% CO2 in DMEM medium with 10% FBS, 1×GlutaMAX, 1 mg/ml G418, 240 nM MTX (methotrexate) and 1% pen/strep (penicillin/streptomycin). They were aliquoted and stored in liquid nitrogen. Before each assay, an aliquot was taken up and washed three times in PBS before being suspended at the desired concentration in assay medium. For 96-well plates the suspension was made to give a final concentration of 5×10EE3 cells/well.
The following chemicals were used in the assay: Pluronic F-68 (10%) (Gibco 2404), ovalbumin (Sigma A5503), DMEM w/o phenol red (Gibco 11880-028), 1 M Hepes (Gibco 15630), Glutamax 100× (Gibco 35050) and steadylite plus (PerkinElmer 6016757).
Assay Medium consisted of DMEM w/o phenol red, 10 mM Hepes, 1× GlutaMAX, 2% Ovalbumin and 0.2% Pluronic F-68.
Cell stocks were thawed in a 37° C. water bath. Cells were washed three times in PBS. The cells were counted and adjusted to 5×10EE3 cells/50 μl (1×10EE5 cells/ml) in Assay Medium. A 50 μl aliquot of cells was transferred to each well in the assay plate.
Stocks of the test compounds and reference compounds were diluted to a concentration of […] in Assay Medium. Compounds were diluted 10-fold to give the following concentrations: 2×10EE-6 M, 2×10EE-7 M, 2×10EE-8 M; 2×10EE-9 M, 2×10EE-10 M, 2×10EE-11 M, 2×10EE-12 M and 2×10EE-13 M. For each compound a blank assay medium control was also included.
A 50 μl aliquot of compound or blank was transferred from the dilution plate to the assay plate. Compounds were tested at the following final concentrations: 1×10EE-6 M, 1×10EE-7 M, 1×10EE-8 M; 1×10EE-9 M, 1×10EE-10 M, 1×10EE-11 M and 1×10EE-12 M and 1×10EE-13 M.
The assay plate was incubated for 3 h in a 5% CO2 incubator at 37° C. The assay plate was removed from the incubator and allowed to stand at room temperature for 15 min. A 100 μl aliquot of steadylite plus reagent was added to each well of the assay plate (reagent is light sensitive). Each assay plate was covered with aluminum foil to protect it from light and shaken for 30 min at room temperature. Each assay plate was read in a Perkin Elmer TopCount NXT instrument.
The data from the TopCount instrument was transferred to GraphPad Prism software. The software performed a non-linear regression (log(agonist) vs response-Variable slope (four parameter)). EC50 values were calculated by the software and reported in pM.

human GLP-1 receptor [1] = target: T2, human GLP-1 receptor (Homo sapiens, UniProt P43220); assay: GLP-1 receptor potency, CRE luciferase reporter gene assay in BHK cells; format: cell-based; conditions: BHK cells expressing human GLP-1 receptor, read-out: EC50 GLP-1R
T2 construct: expressed in transfected cells; host or cells: BHK cells (parent BHKTS13), clone FCW467-12A/KZ10-1, with CRE luciferase
Outline: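 Potency as cAMP-driven firefly luciferase signal after 3 h, 37° C exposure to 10-fold dilutions (final 1×10EE-13–1×10EE-6 M). Stable hGLP-1R/CRE-luc BHK clone, 5×10EE3 cells/well, medium containing 2% ovalbumin and 0.2% Pluronic F-68; EC50 (pM) from variable-slope non-linear regression.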

human GLP-1 receptor [2] = target: T2, human GLP-1 receptor; assay: GLP-1 receptor binding, 125I-GLP-1 displacement SPA on isolated membranes; conditions: displacement of 125I-GLP-1 from membranes; read-out: IC50 GLP-1R
Outline: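 Test derivatives, serially diluted, competed with 125I-GLP-1(7-36)NH2 for the human GLP-1 receptor on BHK membranes, read by WGA-bead scintillation proximity after 2 h at 30°C, pH 7.4 HEPES/EGTA/MgCl2 buffer. Final serum albumin was either ≤0.001% or 2.0%; IC50 from non-linear fit.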

T1 sequence (P47871 26-477): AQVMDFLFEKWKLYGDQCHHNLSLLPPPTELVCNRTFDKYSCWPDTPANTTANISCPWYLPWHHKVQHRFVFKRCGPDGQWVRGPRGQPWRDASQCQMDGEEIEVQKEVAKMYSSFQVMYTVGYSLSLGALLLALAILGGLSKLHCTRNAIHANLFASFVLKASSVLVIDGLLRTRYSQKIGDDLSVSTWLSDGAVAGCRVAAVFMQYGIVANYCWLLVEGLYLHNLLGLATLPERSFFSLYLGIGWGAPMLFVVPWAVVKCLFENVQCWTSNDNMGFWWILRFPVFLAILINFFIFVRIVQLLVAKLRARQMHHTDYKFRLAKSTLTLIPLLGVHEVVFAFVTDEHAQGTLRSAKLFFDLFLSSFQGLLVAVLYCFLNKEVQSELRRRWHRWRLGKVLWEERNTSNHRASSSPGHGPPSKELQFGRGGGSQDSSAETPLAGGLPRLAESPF
T2 sequence (P43220 24-463): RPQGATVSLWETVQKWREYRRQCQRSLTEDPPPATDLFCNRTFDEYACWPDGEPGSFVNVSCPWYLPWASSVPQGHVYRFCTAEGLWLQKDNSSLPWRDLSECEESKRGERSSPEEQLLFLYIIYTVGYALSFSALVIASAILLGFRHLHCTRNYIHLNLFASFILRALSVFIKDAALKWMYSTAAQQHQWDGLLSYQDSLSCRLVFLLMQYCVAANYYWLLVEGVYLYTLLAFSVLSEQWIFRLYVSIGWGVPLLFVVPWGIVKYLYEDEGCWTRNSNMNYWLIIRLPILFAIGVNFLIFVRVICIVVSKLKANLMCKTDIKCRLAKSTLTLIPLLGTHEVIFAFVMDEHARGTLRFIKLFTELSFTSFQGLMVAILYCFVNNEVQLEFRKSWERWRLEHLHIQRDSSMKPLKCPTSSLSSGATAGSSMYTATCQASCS

| Compound | EC50 (human glucagon receptor) | EC50 (human GLP-1 receptor [1]) | IC50 (human GLP-1 receptor [2]) |
| --- | --- | --- | --- |
| CC(C)C[C@H](NC(=O)[C@H](Cc1ccc(O)cc1)NC(=O)[C@H](CCCCN)NC(=O)[C@H](CO)NC(=O)[C@H](CC(C)C)NC(=O)[C@H](CC(=O)O)NC(=O)[C@H](CO)NC(=O)[C@@H](NC(=O)[C@H](Cc1ccccc1)NC(=O)[C@@H](NC(=O)CNC(=O)[C@H](CCC(N)=O)NC(=O)C(C)(C)NC(=O)[C@@H](N)Cc1c[nH]cn1)[C@@H](C)O)[C@@H](C)O)C(=O)N[C@@H](CC(=O)O)C(=O)N[C@@H](CCCCNC(=O)CC[C@H](NC(=O)CC[C@H](NC(=O)COCCOCCNC(=O)COCCOCCNC(=O)CC[C@H](NC(=O)CCCCCCCCCCCCCCCCC(=O)O)C(=O)O)C(=O)O)C(=O)O)C(=O)N[C@@H](CCCNC(=N)N)C(=O)N[C@@H](CCCNC(=N)N)C(=O)N[C@@H](C)C(=O)N[C@@H](CCCNC(=N)N)C(=O)N[C@@H](CC(=O)O)C(=O)N[C@@H](Cc1ccccc1)C(=O)N[C@H](C(=O)N[C@@H](CCC(N)=O)C(=O)N[C@@H](Cc1c[nH]c2ccccc12)C(=O)N[C@@H](CC(C)C)C(=O)N[C@@H](CC(C)C)C(=O)N[C@@H](CO)C(=O)N[C@H](C(N)=O)[C@@H](C)O)C(C)C [Example 1, N^ε16-[(4S)-4-carboxy-4-[[(4S)-4-carboxy-4-[[2-[2-[2-[[2-[2-[2-[[(4S)-4-carboxy-4-(17-carboxyheptadecanoylamino)butanoyl]amino]ethoxy]ethoxy]acetyl]amino]ethoxy]ethoxy]acetyl]amino]butanoyl]amino]butanoyl]-[Aib2,Leu10,Lys16,Arg20,Leu27,Ser28]-Glucagon amide] (H-H[Aib]QGTFTSDLSKYLDK([γGlu-γGlu-AEEA-AEEA-γGlu-C18 diacid])RRARDFVQWLLST-NH2; N-terminus assumed) | 54 pM | 8 pM | – |
| CC(C)C[C@H](NC(=O)[C@H](Cc1ccc(O)cc1)NC(=O)[C@H](CCCCN)NC(=O)[C@H](CO)NC(=O)[C@H](CC(C)C)NC(=O)[C@H](CC(=O)O)NC(=O)[C@H](CO)NC(=O)[C@@H](NC(=O)[C@H](Cc1ccccc1)NC(=O)[C@@H](NC(=O)CNC(=O)[C@H](CCC(N)=O)NC(=O)C(C)(C)NC(=O)[C@@H](N)Cc1c[nH]cn1)[C@@H](C)O)[C@@H](C)O)C(=O)N[C@@H](CC(=O)O)C(=O)N[C@@H](CO)C(=O)N[C@@H](CCCNC(=N)N)C(=O)N[C@@H](CCCNC(=N)N)C(=O)N[C@@H](C)C(=O)N[C@@H](CCCNC(=N)N)C(=O)N[C@@H](CC(=O)O)C(=O)N[C@@H](Cc1ccccc1)C(=O)N[C@H](C(=O)N[C@@H](CCC(N)=O)C(=O)N[C@@H](Cc1c[nH]c2ccccc12)C(=O)N[C@@H](CC(C)C)C(=O)N[C@@H](CC(C)C)C(=O)N[C@@H](CCCCNC(=O)CC[C@H](NC(=O)CC[C@H](NC(=O)COCCOCCNC(=O)COCCOCCNC(=O)CC[C@H](NC(=O)CCCCCCCCCCCCCCCCC(=O)O)C(=O)O)C(=O)O)C(=O)O)C(=O)N[C@H](C(N)=O)[C@@H](C)O)C(C)C [Example 4, N^ε28-[(4S)-4-carboxy-4-[[(4S)-4-carboxy-4-[[2-[2-[2-[[2-[2-[2-[[(4S)-4-carboxy-4-(17-carboxyheptadecanoylamino)butanoyl]amino]ethoxy]ethoxy]acetyl]amino]ethoxy]ethoxy]acetyl]amino]butanoyl]amino]butanoyl]-[Aib2,Leu10,Arg20,Leu27,Lys28]-Glucagon amide] (H-H[Aib]QGTFTSDLSKYLDSRRARDFVQWLLK([γGlu-γGlu-AEEA-AEEA-γGlu-C18 diacid])T-NH2; N-terminus assumed) | 16 pM | 4 pM | – |
| CC(C)C[C@H](NC(=O)[C@H](CC(=O)O)NC(=O)[C@H](CC(C)C)NC(=O)[C@H](Cc1ccc(O)cc1)NC(=O)[C@H](CCCCN)NC(=O)[C@H](CO)NC(=O)[C@@H](NC(=O)[C@H](CC(=O)O)NC(=O)[C@H](CO)NC(=O)[C@@H](NC(=O)[C@H](Cc1ccccc1)NC(=O)[C@@H](NC(=O)CNC(=O)[C@H](CCC(N)=O)NC(=O)C(C)(C)NC(=O)[C@@H](N)Cc1c[nH]cn1)[C@@H](C)O)[C@@H](C)O)C(C)C)C(=O)N[C@@H](CCCNC(=N)N)C(=O)N[C@@H](CCCNC(=N)N)C(=O)N[C@@H](C)C(=O)N[C@@H](CCC(N)=O)C(=O)N[C@@H](CC(=O)O)C(=O)N[C@@H](Cc1ccccc1)C(=O)N[C@H](C(=O)N[C@@H](CCC(N)=O)C(=O)N[C@@H](Cc1c[nH]c2ccccc12)C(=O)N[C@@H](CC(C)C)C(=O)N[C@@H](CC(C)C)C(=O)N[C@@H](CCCCNC(=O)COCCOCCNC(=O)COCCOCCNC(=O)CC[C@H](NC(=O)CC[C@H](NC(=O)CC[C@H](NC(=O)CCCCCCCCCCCCCCCCC(=O)O)C(=O)O)C(=O)O)C(=O)O)C(=O)N[C@H](C(N)=O)[C@@H](C)O)C(C)C [Example 71, N^ε28-[2-[2-[2-[[2-[2-[2-[[(4S)-4-carboxy-4-[[(4S)-4-carboxy-4-[[(4S)-4-carboxy-4-(17-carboxyheptadecanoylamino)butanoyl]amino]butanoyl]amino]butanoyl]amino]ethoxy]ethoxy]acetyl]amino]ethoxy]ethoxy]acetyl]-[Aib2,Val10,Leu16,Leu27,Lys28]-Glucagon amide] (H-H[Aib]QGTFTSDVSKYLDLRRAQDFVQWLLK([AEEA-AEEA-γGlu-γGlu-γGlu-C18 diacid])T-NH2) | 17 pM | 4 pM | 700 pM |
